Patent publication EP4678750A1 (priority 2023, dated 2024)

Assays:
[1] = system: replicon RNA transcribed from NOBEVR; experiment: microbe, parasite or virus in culture; type: cell-based, Nobecovirus
[2] = system: replicon RNA transcribed from SC2R; type: cell-based, SARS-CoV-2
[3] = system: replicon RNA transcribed from HKU1; type: cell-based, Embecovirus
[4] = system: replicon RNA transcribed from MERVR; type: cell-based, MERS-CoV
[5] = system: replicon RNA transcribed from SCVR; type: cell-based, SARS-CoV-1
[6] = system: replicon RNA transcribed from SC2R; experiment: microbe, parasite or virus in culture; type: cell-based, SARS-CoV-2; settings: Severe acute respiratory syndrome coronavirus 2, 48 h, read-out: EC50, inhibition of the replication of replicon RNA transcribed from SC2R
HCV replicon RNA = experiment: HCV subgenomic replicon replication, Renilla luciferase activity; type: cell-based, genotype 1b HCV (1B-4 strain); settings: Hepatitis C virus; 72 hours, RL activity, FIG. 15B; read-out: EC50, inhibition of the replication of HCV replicon RNA
[7] = Evaluation of cytotoxicity (WST-1); settings: human, HuH-7.6c cells

SMILES	replication of replicon RNA transcribed from NOBEVR [1]	replication of replicon RNA transcribed from SC2R [2]	replication of replicon RNA transcribed from HKU1 [3]	replication of replicon RNA transcribed from MERVR [4]	replication of replicon RNA transcribed from SCVR [5]	replication of replicon RNA in NOBEVR [1]	replication of replicon RNA in HKU1 [3]	other results
CN(C)CC[C@H](CSc1ccccc1)Nc1ccc(S(=O)(=O)NC(=O)c2ccc(N3CCN(Cc4ccccc4-c4ccc(Cl)cc4)CC3)cc2)cc1[N+](=O)[O-] [ABT-737]	inhibited	inhibited	inhibited	inhibited	inhibited			
CC1(C)CCC(CN2CCN(c3ccc(C(=O)NS(=O)(=O)c4ccc(NCC5CCOCC5)c([N+](=O)[O-])c4)c(Oc4cnc5[nH]ccc5c4)c3)CC2)=C(c2ccc(Cl)cc2)C1 [venetoclax]		did not inhibit						
COc1cc2c(cc1OC)[C@@H](Cc1ccc(Oc3cc(C[C@@H]4c5cc(OC)c(OC)cc5CCN4C)ccc3O)cc1)N(C)CC2 [dauricine]								inhibitory activity against the replication of replicon RNA transcribed from NOBEVR [1]: strong inhibitory activity; replicon RNA replication inhibitory activity against SC2R [2]: replicon RNA replication inhibitory activity
CN(C)CC#Cc1ccc(OCCCc2sc(N3CCc4cccc(C(=O)Nc5nc6ccccc6s5)c4C3)nc2C(=O)O)c(F)c1 [A-1155463]	inhibited	inhibited	inhibited	inhibited	inhibited			concentration responsiveness of the replication level of SARS-CoV-2 replicon RNA [2]: inhibited the replication of replicon RNA transcribed from SC2R in a concentration-dependent manner
COc1cc2c(cc1O)[C@@H](Cc1ccc(O)c(Oc3ccc(C[C@@H]4c5cc(OC)c(OC)cc5CCN4C)cc3)c1)N(C)CC2 [daurisoline]								inhibitory activity against the replication of replicon RNA transcribed from NOBEVR [1]: strong inhibitory activity; replicon RNA replication inhibitory activity against SC2R [2]: replicon RNA replication inhibitory activity
CCC(CC)COC(=O)[C@H](C)N[P@](=O)(OC[C@H]1O[C@@](C#N)(c2ccc3c(N)ncnn23)[C@H](O)[C@@H]1O)Oc1ccccc1 [remdesivir]						did not inhibit	did not inhibit	
Cc1c(-c2ccc(N3CCc4cccc(C(=O)Nc5nc6ccccc6s5)c4C3)nc2C(=O)O)cnn1CC12CC3CC(CC(C3)C1)C2 [A-1331852]	inhibited	inhibited	inhibited	inhibited	inhibited			EC50 [6]: 1.46 nM; EC50 (HCV replicon RNA): 14.8 nM
NC(=O)c1nc(F)c[nH]c1=O [favipiravir]						did not inhibit	did not inhibit	
CC(C)=CCC[C@]1(C)C=Cc2c(O)c3c(c(CC=C(C)C)c2O1)O[C@]12C(=C[C@@H]4C[C@H]1C(C)(C)O[C@@]2(C/C=C(/C)C(=O)O)C4=O)C3=O [gambogic acid]		inhibited						
Cn1cnc(Cn2c(=O)[nH]/c(=N\c3cc4cn(C)nc4cc3Cl)n(Cc3cc(F)c(F)cc3F)c2=O)n1.O=C(O)/C=C/C(=O)O [ensitrevir fumarate]						did not inhibit	did not inhibit	
CC1(C)CCC(c2ccc(Cl)cc2)=C(CN2CCN(c3ccc(C(=O)NS(=O)(=O)c4ccc(N[C@H](CCN5CCOCC5)CSc5ccccc5)c(S(=O)(=O)C(F)(F)F)c4)cc3)CC2)C1 [navitoclax]	inhibited	inhibited	inhibited	inhibited	inhibited			inhibitory activity against the replication of replicon RNA transcribed from NOBEVR [1]: inhibitory activity; EC50 ([1]; Nobecovirus, 48 h, read-out: EC50, inhibition of the replication of replicon RNA transcribed from NOBEVR): 280 nM; CC50 at 48 h [7]: 18.6 µM
CC(C)(C)[C@H](NC(=O)C(F)(F)F)C(=O)N1C[C@H]2[C@@H]([C@H]1C(=O)N[C@H](C#N)C[C@@H]1CCNC1=O)C2(C)C [PF-07321332]						did not inhibit	did not inhibit	
